Measured values reported in US20110166121A1 (LG LIFE SCIENCES LTD., priority 2008, published 2011).
pIC50, pKi: −log10 of the molar value.

What was measured:
Human P2Y12 receptor = target: T1, Human P2Y12 receptor (Homo sapiens, UniProt Q9H244); assay: Human P2Y12 receptor cell membrane binding assay with [3H] 2-Mes-ADP; conditions: 1 nM [3H] 2-Mes-ADP, membranes of HEK cells expressing P2Y12 receptor; read-out: Binding activity (IC50)
T1 construct: expressed in transfected cells; host or cells: HEK cells
T1 sequence (Q9H244 whole entry): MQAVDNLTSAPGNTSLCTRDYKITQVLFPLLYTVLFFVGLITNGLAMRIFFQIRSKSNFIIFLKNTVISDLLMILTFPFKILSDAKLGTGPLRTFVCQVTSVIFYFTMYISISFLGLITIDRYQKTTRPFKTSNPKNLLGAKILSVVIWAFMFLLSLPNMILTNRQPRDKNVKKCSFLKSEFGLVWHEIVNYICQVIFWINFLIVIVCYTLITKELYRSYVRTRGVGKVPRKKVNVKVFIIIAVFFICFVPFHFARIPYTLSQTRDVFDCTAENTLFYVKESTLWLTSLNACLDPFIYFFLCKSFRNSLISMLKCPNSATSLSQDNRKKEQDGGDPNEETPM
In short: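 Competition binding used 1 nM [3H]2-MeS-ADP on P2Y12-expressing HEK cell membranes for 1 h at room temperature, followed by filtration and scintillation counting.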

[1] = test system: Human platelet aggregation caused by ADP; assay: Inhibition of ADP-induced platelet aggregation (Mimic-human PRP); format: cell-based; conditions: 20 μM ADP, human platelet concentrate diluted with PPP, absorption at 595 nm
In short: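 Ki came from non-linear sigmoidal fits of inhibition, measured as the 3-min rise in absorbance at 595 nm after 20 μM ADP, relative to 0/20 μM ADP controls. Platelets (3–4×10^8/mL in PPP-diluted human PRP) were exposed to 0.01–30 μM compound for 20 min at room temperature beforehand.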

## CCCc1cc2c(N3CCn4c(nnc4C(F)(F)F)C3)nc(Oc3ccccn3)nc2s1 [Example 3-36, 7-[6-Propyl-2-(pyridin-2-yloxy)-thieno[2,3-d]pyrimidin-4-yl]-3-trifluoromethyl-5,6,7,8-tetrahydro-[1,2,4]triazolo[4,3-a]pyrazine]
Human P2Y12 receptor
  pIC50: 6.59
[1]
  pKi: 6.03

## CCCc1cc2c(N3CCn4c(nnc4C(F)(F)F)C3)nc(Oc3cccc(C#N)c3)nc2s1 [Example 3-37, 3-[6-Propyl-4-(3-trifluoromethyl-5,6-dihydro-8H-[1,2,4]triazolo[4,3-a]pyrazin-7-yl)-thieno[2,3-d]pyrimidin-2-yloxy]-benzonitrile]
Human P2Y12 receptor
  pIC50: 6.70
[1]
  pKi: 5.89

## CCCc1cc2c(N3CCn4c(nnc4C(F)(F)F)C3)nc(Oc3ccc(C#N)cc3)nc2s1 [Example 3-38, 4-[6-Propyl-4-(3-trifluoromethyl-5,6-dihydro-8H-[1,2,4]triazolo[4,3-a]pyrazin-7-yl)-thieno[2,3-d]pyrimidin-2-yloxy]-benzonitrile]
Human P2Y12 receptor
  pIC50: 6.75
[1]
  pKi: 5.66

## CCCc1cc2c(N3CCn4c(nnc4C(F)(F)F)C3)nc(Oc3ccc(CC(=O)OC)cc3)nc2s1 [Example 3-39, {4-[6-Propyl-4-(3-trifluoromethyl-5,6-dihydro-8H-[1,2,4]triazolo[4,3-a]pyrazin-7-yl)-thieno[2,3-d]pyrimidin-2-yloxy]-phenyl}-acetic acid methyl ester]
Human P2Y12 receptor
  pIC50: 6.52
[1]
  pKi: 5.62

## CCCc1cc2c(N3CCn4c(nnc4C(F)(F)F)C3)nc(Oc3ccc(CC(=O)O)cc3)nc2s1 [Example 3-40, {4-[6-Propyl-4-(3-trifluoromethyl-5,6-dihydro-8H-[1,2,4]triazolo[4,3-a]pyrazin-7-yl)-thieno[2,3-d]pyrimidin-2-yloxy]-phenyl}-acetic acid]
Human P2Y12 receptor
  pIC50: 6.64
[1]
  pKi: 5.92

## CCCc1cc2c(N3CCn4c(nnc4C(F)(F)F)C3)nc(Oc3ccc(CCC(=O)OC)cc3)nc2s1 [Example 3-41, 3-{4-[6-Propyl-4-(3-trifluoromethyl-5,6-dihydro-8H-[1,2,4]triazolo[4,3-a]pyrazin-7-yl)-thieno[2,3-d]pyrimidin-2-yloxy]-phenyl}-propionic acid methyl ester]
Human P2Y12 receptor
  pIC50: 6.41
[1]
  pKi: 5.82

## CCCc1cc2c(N3CCn4c(nnc4C(F)(F)F)C3)nc(Oc3ccc(CCC(=O)O)cc3)nc2s1 [Example 3-42, 3-{4-[6-Propyl-4-(3-trifluoromethyl-5,6-dihydro-8H-[1,2,4]triazolo[4,3-a]pyrazin-7-yl)-thieno[2,3-d]pyrimidin-2-yloxy]-phenyl}-propionic acid]
Human P2Y12 receptor
  pIC50: 6.60
[1]
  pKi: 6.18

## CCCc1cc2c(N3CCn4c(nnc4C(F)(F)F)C3)nc(Oc3ccc(OCC(=O)OC)cc3)nc2s1 [Example 3-43, {4-[6-Propyl-4-(3-trifluoromethyl-5,6-dihydro-8H-[1,2,4]triazolo[4,3-a]pyrazin-7-yl)-thieno[2,3-d]pyrimidin-2-yloxy]-phenoxy}-acetic acid methyl ester]
Human P2Y12 receptor
  pIC50: 6.19
[1]
  pKi: < 5.40

## CCCc1cc2c(N3CCn4c(nnc4C(F)(F)F)C3)nc(Oc3ccc(OCC(=O)O)cc3)nc2s1 [Example 3-44, {4-[6-Propyl-4-(3-trifluoromethyl-5,6-dihydro-8H-[1,2,4]triazolo[4,3-a]pyrazin-7-yl)-thieno[2,3-d]pyrimidin-2-yloxy]-phenoxy}-acetic acid]
Human P2Y12 receptor
  pIC50: 6.74
[1]
  pKi: 6.30

## CCCc1cc2c(N3CCn4c(nnc4C(F)(F)F)C3)nc(Oc3cccc(N4CCNCC4)c3)nc2s1 [Example 3-45, 7-[2-(3-piperazin-1-yl-phenoxy)-6-propyl-thieno[2,3-d]pyrimidin-4-yl]-3-trifluoromethyl-5,6,7,8-tetrahydro-[1,2,4]triazolo[4,3-a]pyrazine]
Human P2Y12 receptor
  pIC50: 5.72
[1]
  pKi: < 5.40

## CCCc1cc2c(N3CCn4c(nnc4C(F)(F)F)C3)nc(Oc3ccc(N4CCNCC4)cc3)nc2s1 [Example 3-46, 7-[2-(4-piperazin-1-yl-phenoxy)-6-propyl-thieno[2,3-d]pyrimidin-4-yl]-3-trifluoromethyl-5,6,7,8-tetrahydro-[1,2,4]triazolo[4,3-a]pyrazine]
Human P2Y12 receptor
  pIC50: 5.63
[1]
  pKi: < 5.40

## CCCc1cc2c(N3CCn4c(nnc4C(F)(F)F)C3)nc(Oc3ccc(C=O)cc3)nc2s1 [Example 3-47, 4-[6-Propyl-4-(3-trifluoromethyl-5,6-dihydro-8H-[1,2,4]triazolo[4,3-a]pyrazin-7-yl)-thieno[2,3-d]pyrimidin-2-yloxy]-benzaldehyde]
Human P2Y12 receptor
  pIC50: 6.43
[1]
  pKi: < 5.40

## CCCc1cc2c(N3CCn4c(nnc4C(F)(F)F)C3)nc(Oc3ccc(CO)cc3)nc2s1 [Example 3-48, {4-[6-Propyl-4-(3-trifluoromethyl-5,6-dihydro-8H-[1,2,4]triazolo[4,3-a]pyrazin-7-yl)-thieno[2,3-d]pyrimidin-2-yloxy]-phenyl}-methanol]
Human P2Y12 receptor
  pIC50: 6.47
[1]
  pKi: < 5.40

## CCc1cc2c(N3CCn4c(nnc4C(F)(F)F)C3)nc(OCCO)nc2s1 [Example 3-50, 2-[6-Ethyl-4-(3-trifluoromethyl-5,6-dihydro-8H-[1,2,4]triazolo[4,3-a]pyrazin-7-yl)-thieno[2,3-d]pyrimidin-2-yloxy]-ethanol]
Human P2Y12 receptor
  pIC50: 6.22
[1]
  pKi: 6.85

## CCCc1cc2c(N3CCn4c(nnc4C(F)(F)F)C3)nc(SCc3ccccc3)nc2s1 [Example 3-51, 7-(2-Benzylsulfanyl-6-propyl-thieno[2,3-d]pyrimidin-4-yl)-3-trifluoromethyl-5,6,7,8-tetrahydro-[1,2,4]triazolo[4,3-a]pyrazine]
Human P2Y12 receptor
  pIC50: 6.15
[1]
  pKi: 5.93

## CCCc1cc2c(N3CCn4c(nnc4C(F)(F)F)C3)nc(Sc3ncccn3)nc2s1 [Example 3-53, 7-[6-Propyl-2-(pyrimidin-2-ylsulfanyl)-thieno[2,3-d]pyrimidin-4-yl]-3-trifluoromethyl-5,6,7,8-tetrahydro-[1,2,4]triazolo[4,3-a]pyrazine]
Human P2Y12 receptor
  pIC50: 6.24
[1]
  pKi: 6.12

## CCCc1cc2c(N3CCn4c(nnc4C(F)(F)F)C3)nc(OCCNCC(=O)O)nc2s1 [Example 3-55, {2-[6-Propyl-4-(3-trifluoromethyl-5,6-dihydro-8H-[1,2,4]triazolo[4,3-a]pyrazin-7-yl)-thieno[2,3-d]pyrimidin-2-yloxy]-ethylamino}-acetic acid]
Human P2Y12 receptor
  pIC50: 6.82
[1]
  pKi: 7.60

## CCCc1cc2c(N3CCn4c(nnc4C(F)(F)F)C3)nc(OCCN)nc2s1 [Example 3-58, 2-[6-Propyl-4-(3-trifluoromethyl-5,6-dihydro-8H-[1,2,4]triazolo[4,3-a]pyrazin-7-yl)-thieno[2,3-d]pyrimidin-2-yloxy]-ethylamine]
Human P2Y12 receptor
  pIC50: 6.40
[1]
  pKi: 7.68

## CCCc1cc2c(N3CCn4c(nnc4C(F)(F)F)C3)nc(OCCNC(=O)COC)nc2s1 [Example 3-63, 2-Methoxy-N-{2-[6-propyl-4-(3-trifluoromethyl-5,6-dihydro-8H-[1,2,4]triazolo[4,3-a]pyrazin-7-yl)-thieno[2,3-d]pyrimidin-2-yloxy]-ethyl}-acetamide]
Human P2Y12 receptor
  pIC50: 7.37
[1]
  pKi: 8.15

## CCCc1cc2c(N3CCn4c(nnc4C(F)(F)F)C3)nc(OCCNS(C)(=O)=O)nc2s1 [Example 3-64, N-{2-[6-Propyl-4-(3-trifluoromethyl-5,6-dihydro-8H-[1,2,4]triazolo[4,3-a]pyrazin-7-yl)-thieno[2,3-d]pyrimidin-2-yloxy]-ethyl}-methanesulfonamide]
Human P2Y12 receptor
  pIC50: 6.96
[1]
  pKi: 6.82
